Columns and labels:
[1] = Thermal stability by thermogravimetric analyzer (5% weight loss temperature); assay type: physicochemical
Text: Measurement of Thermal Stability
If a photoacid generator is thermally stable in a photoresist preparation process, a very good effect in terms of stability can be expected.

[2] = Measurement of solubility of photoacid generators in photoresist solvents; conditions: for Solubility PGMEA: solvent PGMEA; for Solubility Cyclohexane: solvent cyclohexane

Compound | Temperature at which 5% weight loss occurred [1] [°C] | Solubility PGMEA [2] | Solubility Cyclohexane [2]
O=C1c2cccc3c(CC4CC4)ccc(c23)C(=O)N1OS(=O)(=O)C(F)(F)F [Compound 1, 4-cyclopropanemethyl-naphthalimide trifluoromethane sulfonate] | 242 | 9.2 w/v; % | 26.1 w/v; %
O=C1c2cccc3c(CC4CCCCC4)ccc(c23)C(=O)N1OS(=O)(=O)C(F)(F)F [Compound 5] | 252 | 3.1 w/v; % | 7.8 w/v; %
O=C1c2cccc3c(CCCC4CCCC4)ccc(c23)C(=O)N1OS(=O)(=O)C(F)(F)F [Compound 9] | 258 | 6.3 w/v; % | 21.3 w/v; %
CC(C)(C)c1cc2c3c(ccc(CC4CCCCC4)c3c1)C(=O)N(OS(=O)(=O)C(F)(F)F)C2=O [Compound 19] | 236 | 11.0 w/v; % | 31.2 w/v; %
O=C1c2cccc3cccc(c23)C(=O)N1OS(=O)(=O)C(F)(F)F [Formula V, reference compound] | 223 | – | –
